Data published in patent publication US10357477B2, “Anticancer compounds” (REGENTS OF THE UNIVERSITY OF MINNESOTA, priority 2016, dated 2019).

Experiment: Caco-2 permeability assay
Assay type: in vitro ADME
Settings: human, pH 7.4
Description: Cell Culture. The human colon adenocarcinoma cell line Caco-2 was purchased from ATCC (American Type Culture Collection, Manassas, Va.), and was cultured in a humidified atmosphere of 5% CO2 at 37° C. Caco-2 cells were cultured in DMEM with 10% FBS, 1% NEAA, 1% GlutaMax and 1% penicillin and streptomycin solution. The culture medium was changed every other day during cell growth and differentiation. On achieving 80-90% confluence, the cells were rinsed with pre-warm DPBS (pH 7.4) and split using trypsin. The cells were then seeded on membranes of Millipore Millicell-24 cell culture device. The transepithelial electrical resistance (TEER) were assessed to reflect membrane integrity using a Millicells® ERS-2 (Millipore, USA). The Caco-2 cell monolayers were used for transport experiments on day 21 post-seeding with TEER values >500 Ω·cm2. Bidirectional Transport Experiments. Before the transport experiments, the cell monolayer was washed three times with HBSS. Then, the plates were incubated in fresh permeability assay buffer (HBSS containing 10 mM glucose and 20 mM HEPES, pH 7.4) at 37° C. The experiments were conducted by spiking test compounds to either the apical (AP, 0.4 mL) or basolateral side (BL, 0.8 mL), while the receiving chamber contained the corresponding volume of pre-warmed permeability assay buffer. Every experiment was repeated in duplicate, and the plates were incubated in an orbital shaker at 37° C., 50 rpm/min. To assess the drug transport, at the incubation time of 20, 40, 60 and 80 min, aliquot was removed and was immediately replenished with an equal volume of permeability assay buffer. The samples were then subjected to LC/MS/MS analysis. The apparent permeability coefficient was indicated by the absorption rate constant Papp. It could be calculated as PBA (measured in BL to AP direction) or PAB (measured in AP to BL direction), using the equation of Papp=(dQ/dt)/(A×C0). dQ/dt is the rate at which the compound appears in the receiver chamber (nmol/s), A is the surface area of the filter membrane (0.7 cm2) and C0 is the initial concentration in the donor chamber (μM). Efflux ratio (ER) was calculated by the equation of ER=PBA/PAB, where PBA is the Papp value measured in BL to AP direction, and PAB is the Papp value measured in AP to BL direction.

Structure (SMILES): CNC(=O)c1cccc(Cn2nc(C)c(NC(=O)c3ccc(COc4ccc(C(F)(F)F)cc4)cc3)c2C)c1 [Compound D9c, 3-((3,5-Dimethyl-4-(4-((4-(trifluoromethyl)phenoxy)-methyl)benzamido)-1H-pyrazol-1-yl)methyl)-N-methylbenzamide]
- Papp A→B at 80 min (apical to basolateral): 8.26 ×10⁻⁶ cm/s
- Papp B→A at 80 min (basolateral to apical): 19.3 ×10⁻⁶ cm/s
